Laboratory results: patent publication US10611765B2, “Pyrrolopyrimidine derivatives as Mps1/TTK kinase inhibitors” (Ohio State Innovation Foundation, priority 2014, dated 2020)
Read-outs that look alike come from different tables or passages of the source.

Legend:
BT-474 = test: MTS anti-proliferative assay, BT-474; type: cell-based; settings: BT-474, luminal B, treatment for 7 days
Description: (§1) The anti-proliferative effects and IC50 values of the compounds in the BC cell line panel were determined by MTS assay.
(§2) The cells, except Sk-Br-3, AU565 and BT-474 were maintained in a mixture of Dulbecco's modified Eagle's medium and Ham's F12 medium (1:1) (DMEM/F12) without phenol red supplemented with 5% fetal bovine serum (FBS) and 1× antibiotic-antimycotic (100 U/mL penicillin G sodium, 100 μg/mL streptomycin sulfate and 0.25 μg/mL amphotericin B) and were plated separately in flasks in a humidified incubator (5% CO2: 95% air, 37° C.). The media used for Sk-Br-3, AU565 and BT-474 cell lines was described in (1) Brueggemeier et al., J. Steroid Biochem. Mol. Biol., 2005; 95:129-136; and (2) Diaz-Cruz et al., J. Clin. Endocrinol. Metab., 2005; 90:2563-2570. The media were changed every 2-days. When the cells grew to about 80% confluence, cells were washed twice with calcium- and magnesium-free phosphate-buffered saline (PBS, pH 7.4), and then trypsinized with 0.05% trypsin-5.3 mm EDTA. The trypsinization was stopped by addition of culture medium with 5% FBS. After centrifugation, the dissociated cells were resuspended in the same medium and subcultured into 75-cm^2 culture flasks at a ratio of 1:5 flasks.
(§3) The BC cells were seeded at the density of 1,000 cells per well (100 μL) into 96 well plate in DMEM/F-12 (1:1), supplemented with 5% (v/v) FCS and incubated overnight at 37° C. Test compounds are solubilized in dimethyl sulfoxide (DMSO), diluted in cell culture medium to a range of final assay concentrations of 1 nM to 10 μM, added to cells and incubated for 7 days at 37° C. The medium including the test compound are refreshed at days 3 and 5. The MTS assay are carried out by using the CellTiter 96® AQueous One Solution Cell Proliferation Assay kit following the manufacturer's instruction.

[1] = system: panel of breast cancer cell lines; test: Anti-proliferative assays, panel of BC cell lines (overall statements); type: cell-based; settings: in some or all of the cell based assays in the panel
Description: This example describes the development of novel small molecule Mps1/TTK inhibitors as targeted therapies for TNBC and other aggressive BC using drug discovery technologies. Using computational modeling, medicinal chemistry, biochemistry and cell culture assays, the inventors have identified novel small molecules as potential Mps1/TTK inhibitors. The compounds were evaluated in anti-proliferative assays of a panel of 15 BC cell lines and further examined for their ability to inhibit a variety of Mps1-dependent biological functions.
as §1, §2, §3

BT-549 = test: MTS anti-proliferative assay, BT-549; type: cell-based; settings: BT-549, TNBC, basal B, treatment for 7 days
Description: as §1, §2, §3

MDA-MB-436 = test: MTS anti-proliferative assay, MDA-MB-436; type: cell-based; settings: MDA-MB-436, TNBC, basal B, treatment for 7 days
Description: as §1
(§4) The media were changed every 2-days. When the cells grew to about 80% confluence, cells were washed twice with calcium- and magnesium-free phosphate-buffered saline (PBS, pH 7.4), and then trypsinized with 0.05% trypsin-5.3 mm EDTA. The trypsinization was stopped by addition of culture medium with 5% FBS.
as §3

Hs578T = test: MTS anti-proliferative assay, Hs578T; type: cell-based; settings: TNBC, basal B, treatment for 7 days
Description: as §1, §2, §3

Sk-Br-3 = test: MTS anti-proliferative assay, Sk-Br-3; type: cell-based; settings: Sk-Br-3, luminal, treatment for 7 days
Description: as §1, §2, §3

T47D = test: MTS anti-proliferative assay, T47D; type: cell-based; settings: luminal, treatment for 7 days
Description: as §1, §2, §3

MDA-MB-468 = test: MTS anti-proliferative assay, MDA-MB-468; type: cell-based; settings: MDA-MB-468, TNBC, basal B, treatment for 7 days
Description: as §1, §2, §3

MDA-MB-453 = test: MTS anti-proliferative assay, MDA-MB-453; type: cell-based; settings: MDA-MB-453, luminal A, treatment for 7 days
Description: as §1, §4, §3

BT-20 = test: MTS anti-proliferative assay, BT-20; type: cell-based; settings: BT-20, TNBC, basal A, treatment for 7 days
Description: as §1, §2, §3

MDA-MB-231 = test: MTS anti-proliferative assay, MDA-MB-231; type: cell-based; settings: MDA-MB-231, TNBC, basal B, treatment for 7 days
Description: as §1, §2, §3

CAL-51 = test: MTS anti-proliferative assay, CAL-51; type: cell-based; settings: CAL-51, TNBC, basal, treatment for 7 days
Description: as §1, §2, §3

CAMA-1 = test: MTS anti-proliferative assay, CAMA-1; type: cell-based; settings: CAMA-1, luminal, treatment for 7 days
Description: as §1, §2, §3

MCF-7 = test: MTS anti-proliferative assay, MCF-7; type: cell-based; settings: MCF-7, luminal A, treatment for 7 days
Description: as §1, §2, §3

AU565 = test: MTS anti-proliferative assay, AU565; type: cell-based; settings: AU565, luminal, treatment for 7 days
Description: as §1, §2, §3

[2] = biological target: T1, Mps1/TTK kinase (recombinant GST-Mps1) (Homo sapiens, UniProt P33981); test: Mps1 in vitro kinase assay with Cetn2 substrate; type: biochemical
T1 sequence (P33981 1-857): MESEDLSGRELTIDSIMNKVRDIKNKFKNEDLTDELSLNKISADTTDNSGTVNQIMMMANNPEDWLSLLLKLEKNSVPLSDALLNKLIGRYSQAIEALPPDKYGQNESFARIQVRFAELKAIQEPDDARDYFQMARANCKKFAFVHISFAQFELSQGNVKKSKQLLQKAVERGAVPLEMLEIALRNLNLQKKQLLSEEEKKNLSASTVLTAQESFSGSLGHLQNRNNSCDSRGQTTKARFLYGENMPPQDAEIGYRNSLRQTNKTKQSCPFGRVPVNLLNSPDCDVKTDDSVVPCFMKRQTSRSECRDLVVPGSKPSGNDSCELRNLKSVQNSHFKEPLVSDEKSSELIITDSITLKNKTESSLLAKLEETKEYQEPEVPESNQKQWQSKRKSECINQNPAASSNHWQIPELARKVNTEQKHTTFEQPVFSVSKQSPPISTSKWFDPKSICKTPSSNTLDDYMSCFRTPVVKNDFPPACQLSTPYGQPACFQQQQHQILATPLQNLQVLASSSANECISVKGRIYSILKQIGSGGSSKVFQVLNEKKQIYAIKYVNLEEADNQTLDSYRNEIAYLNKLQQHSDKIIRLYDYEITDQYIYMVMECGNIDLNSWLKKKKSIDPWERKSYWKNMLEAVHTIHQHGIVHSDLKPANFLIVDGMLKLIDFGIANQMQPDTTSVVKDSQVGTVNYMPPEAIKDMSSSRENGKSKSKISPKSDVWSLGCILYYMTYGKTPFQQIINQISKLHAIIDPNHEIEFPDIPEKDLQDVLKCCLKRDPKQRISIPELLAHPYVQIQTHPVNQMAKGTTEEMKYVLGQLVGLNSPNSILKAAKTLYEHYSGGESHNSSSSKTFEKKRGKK
Description: To determine the efficacy of the compounds against Mps1/TTK kinase activity, assays were performed as previously described (11) using recombinant Mps1, Cetn2 (specific substrate), and varying concentration of compound.

HCC1937 = test: MTS anti-proliferative assay, HCC1937; type: cell-based; settings: HCC1937, TNBC, basal, treatment for 7 days
Description: as §1, §2, §3

Cal-51 cells = test: Centriole assembly / centrosome amplification assay, Cal-51; type: cell-based; settings: Cal-51, at 10 μM
Description: (§5) For these cell biology assays, cells were plated onto poly-L-lysine coated coverslips in 24 well dishes using the medium and growth conditions described above, but using medium containing phenol red. At 24 hours after plating, compounds (or the equivalent amount of DMSO) were added to individual wells at various concentrations. Cells were incubated for 24 hours at 37° C. BrdU was added during the last 4 hours of the incubation, after which cells were fixed in pre-chilled methanol at −20 OC for 10 minutes, stained with centrosome markers, then treated with acid to denature chromosomal DNA prior to staining for BrdU. To assess centriole biogenesis, centriole number was determined for triplicate samples in cells that had entered S-phase as judged by incorporation of BrdU. Primary antibodies used were mouse anti-γTubulin (pericentriolar material) and rabbit anti-Centrin 2 (centrioles). Secondary antibodies used were Alexa594-conjugated donkey anti-mouse and Alexa488-conjugated donkey anti-rabbit.
For centriole assembly assays, Cal-51 and MDA-MB-468 cells were treated with candidate compounds prior to a short pulse of BrdU. Because the centriole pair is replicated at the G1/S transition, compounds that block centrosome assembly will lead to an increased number of BrdU-positive cells with two centrioles. In addition, like many breast cancer cells Cal-51 and MDA-MB-468 are capable of centrosome amplification, and compounds that block this centrosome amplification should reduce the number of BrdU-positive cells with more than four centrioles.

[3] = system: S-phase (BrdU-positive) cells; test: Centriole number in S-phase cells (preliminary investigations); type: cell-based; settings: drug for 20 hours, then 4 hour pulse of BrdU
Description: as §5
For centriole assembly assays, Cal-51 and MDA-MB-468 cells were treated with candidate compounds prior to a short pulse of BrdU. Because the centriole pair is replicated at the G1/S transition, compounds that block centrosome assembly will lead to an increased number of BrdU-positive cells with two centrioles. […]

[4] = additional investigations (text to Table 2), read-out: IC50, in vitro kinase activity of Mps1
[5] = in vitro kinase assay with Cetn2 substrate, Table 2, read-out: IC50 w/Cetn 2

Compound | IC50 (BT-474; Homo sapiens, 168 h) | potency as compared to Mps1-IN-1 [1] | IC50 (BT-549; Homo sapiens, 168 h) | IC50 (MDA-MB-436; Homo sapiens, 168 h) | IC50 (Hs578T; Homo sapiens, Hs-578T, 168 h) | IC50 (Sk-Br-3; Homo sapiens, 168 h) | IC50 (MDA-MB-468; Homo sapiens, 168 h) | IC50 (MDA-MB-453; Homo sapiens, 168 h) | IC50 (BT-20; Homo sapiens, 168 h) | IC50 (MDA-MB-231; Homo sapiens, 168 h) | IC50 (CAL-51; Homo sapiens, 168 h) | IC50 (CAMA-1; Homo sapiens, 168 h) | IC50 (MCF-7; Homo sapiens, MCF7, 168 h) | IC50 [2, 4] | IC50 [2, 5] | IC50 (HCC1937; Homo sapiens, 168 h) | effect on centriole assembly (Cal-51 cells) | effect on centrosome amplification (Cal-51 cells) | effect on centriole assembly [3] | further results
COc1ccccc1Nc1nc(Nc2ccccc2S(=O)(=O)C(C)C)c2cc[nH]c2n1 [Compound 10, N4-(2-(isopropylsulfonyl)phenyl)-N2-(2-methoxyphenyl)-7H-pyrrolo-[2,3-d]pyrimidine-2,4-diamine] | 720 nM | significantly more potent | 1600 nM | 1290 nM | > 10000 nM | 970 nM | 1860 nM | > 10000 nM | 50 nM | 450 nM | 1500 nM | 1550 nM | 350 nM | 3400 nM | 3420 nM | 990 nM |  |  |  | IC50 (T47D; Homo sapiens, 168 h): 340 nM; IC50 (AU565; Homo sapiens, 168 h): > 10000 nM
COc1cc(N2CCOCC2)ccc1Nc1nc(Nc2ccccc2S(=O)(=O)C(C)C)c2cc[nH]c2n1 [Compound 11, N4-(2-(isopropylsulfonyl)phenyl)-N2-(2-methoxy-4-morpholinophenyl)-7H-pyrrolo[2,3-d]pyrimidine-2,4-diamine] | 330 nM | significantly more potent | 1310 nM | 1230 nM | > 10000 nM | 370 nM | 360 nM | > 10000 nM | 1500 nM | > 10000 nM | 300 nM | 780 nM | 400 nM | 13100 nM | 13100 nM | 1100 nM |  |  |  | 
COc1cc(N2CCC(O)CC2)ccc1Nc1cc(Nc2ccccc2S(=O)(=O)C(C)C)c2cc[nH]c2n1 [Mps1-IN-1, reference compound] |  |  |  |  |  |  |  |  |  |  |  |  |  |  |  |  | little effect | little effect | little effect | IC50 (BT-474): > 10000 nM; IC50 (BT-549): 2440 nM; IC50 (MDA-MB-436): > 10000 nM; IC50 (Hs578T): > 10000 nM; IC50 (Sk-Br-3): > 10000 nM; IC50 (T47D): > 10000 nM; IC50 (MDA-MB-468): 1850 nM; IC50 (MDA-MB-453): > 10000 nM; IC50 (BT-20): > 10000 nM; IC50 (MDA-MB-231): > 10000 nM; IC50 (CAL-51): 1840 nM; IC50 (CAMA-1): > 10000 nM; IC50 (MCF-7): > 10000 nM; IC50 (AU565): > 10000 nM; IC50 (HCC1937): > 10000 nM
AZ3146 |  |  |  |  |  |  |  |  |  |  |  |  |  |  |  |  | little effect | little effect | little effect | 
